Tests used:
Estrogen receptor = target: T1, Estrogen receptor (Homo sapiens, UniProt P03372); format: functional
T1 sequence (P03372 whole entry): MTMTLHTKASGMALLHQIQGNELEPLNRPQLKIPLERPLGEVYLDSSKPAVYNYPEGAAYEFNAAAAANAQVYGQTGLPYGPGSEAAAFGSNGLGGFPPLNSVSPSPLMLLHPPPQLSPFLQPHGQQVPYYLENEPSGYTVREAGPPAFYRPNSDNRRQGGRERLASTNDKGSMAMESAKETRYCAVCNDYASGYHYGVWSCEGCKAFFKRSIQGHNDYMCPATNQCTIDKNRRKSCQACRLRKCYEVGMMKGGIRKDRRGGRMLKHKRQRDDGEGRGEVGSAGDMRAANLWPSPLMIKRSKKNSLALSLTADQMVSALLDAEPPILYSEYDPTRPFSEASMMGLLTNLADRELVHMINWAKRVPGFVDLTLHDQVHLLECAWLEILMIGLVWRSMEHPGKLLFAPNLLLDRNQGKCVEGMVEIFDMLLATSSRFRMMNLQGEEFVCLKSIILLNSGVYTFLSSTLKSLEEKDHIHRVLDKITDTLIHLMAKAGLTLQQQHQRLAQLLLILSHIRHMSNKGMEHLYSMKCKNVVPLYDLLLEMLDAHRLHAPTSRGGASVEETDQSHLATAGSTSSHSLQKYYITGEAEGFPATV

[1] = target: Gamma-aminobutyric acid receptor subunit alpha-1/alpha-2/beta-2/gamma-2 (Homo sapiens, UniProt P14867+P18507+P47869+P47870); format: functional, cell-based
D(1A) dopamine receptor = D(1A) dopamine receptor (Homo sapiens, UniProt P21728)
[2] = target: T2, Muscarinic acetylcholine receptor M5 (Homo sapiens, UniProt P08912)
T2 sequence (P08912 whole entry): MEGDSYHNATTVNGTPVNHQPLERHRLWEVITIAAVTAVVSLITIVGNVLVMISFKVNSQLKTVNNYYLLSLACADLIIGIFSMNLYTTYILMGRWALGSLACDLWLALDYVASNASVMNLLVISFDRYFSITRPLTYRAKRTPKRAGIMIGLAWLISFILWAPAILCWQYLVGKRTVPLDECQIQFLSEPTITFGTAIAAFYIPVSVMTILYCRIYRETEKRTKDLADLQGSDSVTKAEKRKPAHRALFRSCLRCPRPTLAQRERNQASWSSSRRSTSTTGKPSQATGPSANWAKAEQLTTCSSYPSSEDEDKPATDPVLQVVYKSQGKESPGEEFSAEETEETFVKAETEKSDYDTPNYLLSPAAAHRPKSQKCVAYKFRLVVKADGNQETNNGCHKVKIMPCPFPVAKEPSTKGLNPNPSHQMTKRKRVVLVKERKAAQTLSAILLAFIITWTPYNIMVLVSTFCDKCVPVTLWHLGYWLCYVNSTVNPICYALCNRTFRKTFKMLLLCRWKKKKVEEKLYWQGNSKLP

Cannabinoid receptor 1 = Cannabinoid receptor 1 (Homo sapiens, UniProt P21554); format: functional
D(4) dopamine receptor = target: T3, D(4) dopamine receptor (Homo sapiens, UniProt P21917)
T3 sequence (P21917 whole entry): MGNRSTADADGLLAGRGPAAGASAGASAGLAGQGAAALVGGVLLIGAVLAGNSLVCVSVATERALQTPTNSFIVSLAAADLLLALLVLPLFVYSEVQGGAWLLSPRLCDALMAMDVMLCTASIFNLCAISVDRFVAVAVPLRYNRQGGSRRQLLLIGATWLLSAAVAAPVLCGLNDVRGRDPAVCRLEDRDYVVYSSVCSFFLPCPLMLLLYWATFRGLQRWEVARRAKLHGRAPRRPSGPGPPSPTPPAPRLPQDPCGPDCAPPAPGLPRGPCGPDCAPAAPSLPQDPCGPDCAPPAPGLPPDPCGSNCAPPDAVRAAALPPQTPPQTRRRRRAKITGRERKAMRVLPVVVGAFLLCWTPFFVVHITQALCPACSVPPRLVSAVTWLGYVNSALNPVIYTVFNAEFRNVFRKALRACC

[3] = target: Gamma-aminobutyric acid type B receptor subunit 1 (Homo sapiens, UniProt Q9UBS5)
[4] = target: T4, Neuropeptide Y receptor type 2 (Homo sapiens, UniProt P49146)
T4 sequence (P49146 whole entry): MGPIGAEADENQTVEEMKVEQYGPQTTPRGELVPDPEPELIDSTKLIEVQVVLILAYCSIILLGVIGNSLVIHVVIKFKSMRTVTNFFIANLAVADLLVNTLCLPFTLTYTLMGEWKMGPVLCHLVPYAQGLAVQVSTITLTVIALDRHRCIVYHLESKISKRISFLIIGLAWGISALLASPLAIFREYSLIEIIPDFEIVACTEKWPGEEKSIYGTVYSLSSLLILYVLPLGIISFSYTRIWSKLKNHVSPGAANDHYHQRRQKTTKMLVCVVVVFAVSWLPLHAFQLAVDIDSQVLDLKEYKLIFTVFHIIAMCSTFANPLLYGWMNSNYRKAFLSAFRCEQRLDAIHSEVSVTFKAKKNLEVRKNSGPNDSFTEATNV

[5] = target: T5, Alpha-1A adrenergic receptor (Homo sapiens, UniProt P35348)
T5 sequence (P35348 whole entry): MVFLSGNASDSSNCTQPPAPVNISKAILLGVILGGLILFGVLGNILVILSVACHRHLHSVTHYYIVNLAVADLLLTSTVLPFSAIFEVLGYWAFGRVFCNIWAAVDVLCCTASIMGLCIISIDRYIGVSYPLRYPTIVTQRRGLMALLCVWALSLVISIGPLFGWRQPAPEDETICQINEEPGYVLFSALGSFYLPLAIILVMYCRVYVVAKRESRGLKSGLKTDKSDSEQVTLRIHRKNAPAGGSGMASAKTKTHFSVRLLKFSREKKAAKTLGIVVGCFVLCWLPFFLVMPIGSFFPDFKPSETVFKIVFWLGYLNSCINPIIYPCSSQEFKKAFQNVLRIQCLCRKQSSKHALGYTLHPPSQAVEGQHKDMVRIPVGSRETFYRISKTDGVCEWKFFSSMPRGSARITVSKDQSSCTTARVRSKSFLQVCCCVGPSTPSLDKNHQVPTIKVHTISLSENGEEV

Histamine H1 receptor = Histamine H1 receptor (Homo sapiens, UniProt P35367); format: functional, cell-based
Further: assay procedure not described here.

Chain of D(1A) dopamine receptor (P21728 whole entry): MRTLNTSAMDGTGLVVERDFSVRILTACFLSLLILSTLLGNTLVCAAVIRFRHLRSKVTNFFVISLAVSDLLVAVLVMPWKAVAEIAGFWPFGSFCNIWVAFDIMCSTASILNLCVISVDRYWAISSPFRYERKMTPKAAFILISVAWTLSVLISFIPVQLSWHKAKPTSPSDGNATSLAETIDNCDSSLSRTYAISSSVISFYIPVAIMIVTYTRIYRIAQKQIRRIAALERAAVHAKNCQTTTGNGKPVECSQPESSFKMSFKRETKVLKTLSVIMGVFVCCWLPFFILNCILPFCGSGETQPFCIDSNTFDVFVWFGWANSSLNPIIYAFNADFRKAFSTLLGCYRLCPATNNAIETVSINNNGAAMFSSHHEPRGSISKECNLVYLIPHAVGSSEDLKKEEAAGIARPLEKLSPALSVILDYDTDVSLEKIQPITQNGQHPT
Chain of Gamma-aminobutyric acid receptor subunit alpha-1/alpha-2/beta-2/gamma-2 (P14867 whole entry): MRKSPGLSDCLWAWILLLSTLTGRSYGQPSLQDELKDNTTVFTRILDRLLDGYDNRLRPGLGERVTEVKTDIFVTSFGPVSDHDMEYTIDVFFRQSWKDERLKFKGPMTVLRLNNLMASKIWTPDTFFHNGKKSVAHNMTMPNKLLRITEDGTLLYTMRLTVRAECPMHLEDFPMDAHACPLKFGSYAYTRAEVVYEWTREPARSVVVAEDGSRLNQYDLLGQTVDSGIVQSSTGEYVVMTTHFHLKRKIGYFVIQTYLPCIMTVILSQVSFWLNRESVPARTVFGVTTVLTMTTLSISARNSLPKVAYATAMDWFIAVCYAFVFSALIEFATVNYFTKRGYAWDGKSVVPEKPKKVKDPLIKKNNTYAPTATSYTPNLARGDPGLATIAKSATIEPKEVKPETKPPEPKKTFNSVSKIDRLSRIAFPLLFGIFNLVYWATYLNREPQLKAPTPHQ
Chain of Gamma-aminobutyric acid receptor subunit alpha-1/alpha-2/beta-2/gamma-2 (P47870 whole entry): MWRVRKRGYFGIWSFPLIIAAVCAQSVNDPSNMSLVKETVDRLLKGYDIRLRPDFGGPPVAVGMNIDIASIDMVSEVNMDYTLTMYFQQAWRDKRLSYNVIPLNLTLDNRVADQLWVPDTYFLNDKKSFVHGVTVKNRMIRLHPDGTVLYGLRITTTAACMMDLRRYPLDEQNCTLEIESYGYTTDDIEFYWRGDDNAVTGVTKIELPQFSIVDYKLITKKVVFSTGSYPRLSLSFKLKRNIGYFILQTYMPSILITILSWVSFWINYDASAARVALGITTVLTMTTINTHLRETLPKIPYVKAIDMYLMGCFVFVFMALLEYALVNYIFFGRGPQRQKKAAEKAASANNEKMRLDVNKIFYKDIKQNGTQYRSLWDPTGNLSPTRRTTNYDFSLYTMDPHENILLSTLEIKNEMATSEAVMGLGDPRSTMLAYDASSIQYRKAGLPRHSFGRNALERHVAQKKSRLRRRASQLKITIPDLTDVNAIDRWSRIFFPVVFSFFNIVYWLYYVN
Chain of Gamma-aminobutyric acid receptor subunit alpha-1/alpha-2/beta-2/gamma-2 (P18507 whole entry): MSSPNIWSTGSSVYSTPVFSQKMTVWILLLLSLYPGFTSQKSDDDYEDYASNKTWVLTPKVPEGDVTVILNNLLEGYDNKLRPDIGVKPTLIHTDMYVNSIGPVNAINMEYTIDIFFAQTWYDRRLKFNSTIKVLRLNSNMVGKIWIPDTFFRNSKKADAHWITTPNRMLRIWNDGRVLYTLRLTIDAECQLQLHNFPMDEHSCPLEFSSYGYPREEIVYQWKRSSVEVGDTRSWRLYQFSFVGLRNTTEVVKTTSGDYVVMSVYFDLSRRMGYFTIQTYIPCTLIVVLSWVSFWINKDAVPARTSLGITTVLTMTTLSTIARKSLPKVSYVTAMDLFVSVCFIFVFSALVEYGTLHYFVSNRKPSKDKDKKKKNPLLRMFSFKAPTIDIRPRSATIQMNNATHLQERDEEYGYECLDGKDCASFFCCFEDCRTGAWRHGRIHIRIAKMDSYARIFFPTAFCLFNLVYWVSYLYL
Chain of Gamma-aminobutyric acid receptor subunit alpha-1/alpha-2/beta-2/gamma-2 (P47869 whole entry): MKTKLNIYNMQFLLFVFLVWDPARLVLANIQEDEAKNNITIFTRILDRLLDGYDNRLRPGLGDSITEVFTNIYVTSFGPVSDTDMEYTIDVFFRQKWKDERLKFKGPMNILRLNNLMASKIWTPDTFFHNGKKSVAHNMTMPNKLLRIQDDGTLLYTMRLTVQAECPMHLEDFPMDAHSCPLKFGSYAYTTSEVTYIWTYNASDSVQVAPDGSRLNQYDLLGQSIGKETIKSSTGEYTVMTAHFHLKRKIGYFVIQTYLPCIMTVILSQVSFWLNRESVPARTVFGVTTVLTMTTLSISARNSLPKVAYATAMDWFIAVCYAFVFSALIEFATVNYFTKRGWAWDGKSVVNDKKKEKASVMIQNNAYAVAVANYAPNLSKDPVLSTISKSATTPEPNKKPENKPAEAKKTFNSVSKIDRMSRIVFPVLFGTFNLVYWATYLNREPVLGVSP
Chain of Gamma-aminobutyric acid type B receptor subunit 1 (Q9UBS5 whole entry): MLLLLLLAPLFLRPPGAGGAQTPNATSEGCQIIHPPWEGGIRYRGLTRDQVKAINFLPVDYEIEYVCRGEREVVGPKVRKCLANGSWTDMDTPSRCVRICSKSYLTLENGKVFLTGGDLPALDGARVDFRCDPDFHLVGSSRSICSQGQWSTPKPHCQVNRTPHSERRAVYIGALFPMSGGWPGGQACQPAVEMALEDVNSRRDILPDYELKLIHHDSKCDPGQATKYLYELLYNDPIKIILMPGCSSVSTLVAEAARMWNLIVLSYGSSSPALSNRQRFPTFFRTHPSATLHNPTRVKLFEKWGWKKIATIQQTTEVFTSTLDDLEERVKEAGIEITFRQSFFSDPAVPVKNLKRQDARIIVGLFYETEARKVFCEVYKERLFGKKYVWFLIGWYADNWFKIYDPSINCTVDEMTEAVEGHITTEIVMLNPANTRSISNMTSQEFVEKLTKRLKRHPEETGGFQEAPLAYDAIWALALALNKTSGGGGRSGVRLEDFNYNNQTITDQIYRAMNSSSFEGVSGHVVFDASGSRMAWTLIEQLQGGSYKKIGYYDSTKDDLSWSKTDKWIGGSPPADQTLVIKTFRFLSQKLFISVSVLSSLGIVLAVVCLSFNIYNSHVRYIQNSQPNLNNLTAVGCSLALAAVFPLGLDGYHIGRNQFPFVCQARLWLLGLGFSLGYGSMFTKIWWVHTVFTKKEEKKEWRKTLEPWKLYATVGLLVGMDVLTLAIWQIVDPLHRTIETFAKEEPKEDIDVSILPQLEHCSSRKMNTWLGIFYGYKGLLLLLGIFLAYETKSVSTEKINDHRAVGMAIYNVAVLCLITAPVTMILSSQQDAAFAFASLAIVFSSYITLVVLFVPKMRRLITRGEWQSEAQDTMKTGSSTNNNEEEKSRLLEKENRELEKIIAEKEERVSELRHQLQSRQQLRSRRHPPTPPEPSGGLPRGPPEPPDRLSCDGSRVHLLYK
Chain of Cannabinoid receptor 1 (P21554 whole entry): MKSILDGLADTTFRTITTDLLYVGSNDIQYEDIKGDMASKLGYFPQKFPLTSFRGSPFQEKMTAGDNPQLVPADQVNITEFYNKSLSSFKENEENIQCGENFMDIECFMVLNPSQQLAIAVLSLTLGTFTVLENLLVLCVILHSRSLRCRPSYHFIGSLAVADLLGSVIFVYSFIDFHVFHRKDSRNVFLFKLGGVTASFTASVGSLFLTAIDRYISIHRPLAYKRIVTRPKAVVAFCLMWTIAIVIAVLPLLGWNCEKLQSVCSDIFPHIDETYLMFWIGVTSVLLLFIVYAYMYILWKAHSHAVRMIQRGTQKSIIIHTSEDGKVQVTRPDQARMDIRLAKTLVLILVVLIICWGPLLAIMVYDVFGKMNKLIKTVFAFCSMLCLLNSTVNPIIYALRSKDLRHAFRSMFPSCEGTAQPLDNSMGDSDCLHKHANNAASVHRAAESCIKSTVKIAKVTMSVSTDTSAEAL
Chain of Histamine H1 receptor (P35367 whole entry): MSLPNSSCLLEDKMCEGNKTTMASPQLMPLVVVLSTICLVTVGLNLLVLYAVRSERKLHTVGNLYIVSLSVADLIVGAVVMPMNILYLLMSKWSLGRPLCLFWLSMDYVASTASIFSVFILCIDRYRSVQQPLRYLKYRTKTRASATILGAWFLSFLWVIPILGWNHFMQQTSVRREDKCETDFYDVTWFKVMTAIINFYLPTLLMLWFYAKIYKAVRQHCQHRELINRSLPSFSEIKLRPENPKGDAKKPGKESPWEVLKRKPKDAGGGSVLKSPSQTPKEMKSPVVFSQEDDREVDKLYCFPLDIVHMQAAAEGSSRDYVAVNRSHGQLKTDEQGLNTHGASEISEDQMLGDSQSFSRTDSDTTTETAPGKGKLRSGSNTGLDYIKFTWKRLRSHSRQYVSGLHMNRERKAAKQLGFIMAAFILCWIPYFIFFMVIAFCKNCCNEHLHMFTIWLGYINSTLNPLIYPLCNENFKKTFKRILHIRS

`CCN1CCN(Cc2ccc(Nc3ncc(F)c(-c4cc(F)c5nc(C)n(C(C)C)c5c4)n3)nc2)CC1` [ABEMACICLIB] was tested, and the AC50 (Estrogen receptor) was > 30 µM and the AC50 [1] was > 30 µM.
In the case of `OC[C@@H](O)[C@@H](O)[C@H](O)[C@@H](O)CO` [SORBITOL], the AC50 (D(1A) dopamine receptor) is reported as > 30 µM.
`CN1C[C@H](C(=O)N[C@]2(C)O[C@@]3(O)[C@@H]4CCCN4C(=O)[C@H](Cc4ccccc4)N3C2=O)C=C2c3cccc4[nH]cc(c34)C[C@H]21` [ERGOTAMINE] was tested, and the AC50 (Estrogen receptor) was > 30 µM.
For `CC(C)(O)CNc1nc(Nc2ccnc(C(F)(F)F)c2)nc(-c2cccc(C(F)(F)F)n2)n1` [ENASIDENIB], the AC50 (D(1A) dopamine receptor) was > 30 µM.
In the case of `COc1ccccc1OCCNCC(O)COc1cccc2[nH]c3ccccc3c12` (stereo not drawn) [CARVEDILOL], the AC50 [2] is reported as > 10 µM, the AC50 (Cannabinoid receptor 1) is reported as > 10 µM and the AC50 (D(4) dopamine receptor) is reported as 0.0172 µM. The AC50 [3] was > 10 µM, the AC50 [4] was > 30 µM and the AC50 [5] was 0.0099 µM.
`CN1C(C(=O)Nc2ccccn2)=C(O)c2ccccc2S1(=O)=O` [PIROXICAM] was tested, and the AC50 (D(1A) dopamine receptor) was > 30 µM.
With `CN(CC1(C)CCCO1)S(=O)(=O)c1ccc(Cl)c(S(N)(=O)=O)c1` (stereo not drawn) [MEFRUSIDE] the AC50 (D(1A) dopamine receptor) was > 30 µM and the AC50 [1] was > 30 µM.
In the case of `C[C@@H](Oc1cc(-c2cnn(C3CCNCC3)c2)cnc1N)c1c(Cl)ccc(F)c1Cl` [CRIZOTINIB], the AC50 (Estrogen receptor) is reported as > 30 µM, the AC50 [1] is reported as 17 µM and the AC50 [4] is reported as > 30 µM.
In the case of `CN(C)CCc1c[nH]c2ccc(Cn3cncn3)cc12` [RIZATRIPTAN], the AC50 [2] is reported as > 10 µM, the AC50 (Cannabinoid receptor 1) is reported as > 10 µM and the AC50 (D(4) dopamine receptor) is reported as > 10 µM. The AC50 [3] was > 10 µM, the AC50 [1] was > 30 µM and the AC50 (Histamine H1 receptor) was 20 µM. For the same compound, the AC50 [4] was > 30 µM and the AC50 [5] was > 10 µM.
In the case of `COc1cc2nccc(Oc3ccc(NC(=O)C4(C(=O)Nc5ccc(F)cc5)CC4)cc3)c2cc1OC` [CABOZANTINIB], the AC50 (Estrogen receptor) is reported as > 30 µM and the AC50 [1] is reported as > 30 µM.
For `C#C[C@]1(O)CC[C@H]2[C@@H]3CCC4=CC(=O)CC[C@@H]4[C@H]3C(=C)C[C@@]21CC` [ETONOGESTREL], the AC50 (D(1A) dopamine receptor) was > 30 µM and the AC50 [1] was > 30 µM.
`CC(C)c1nc(N(C)S(C)(=O)=O)nc(-c2ccc(F)cc2)c1/C=C/[C@@H](O)C[C@@H](O)CC(=O)O` [ROSUVASTATIN] was tested, and the AC50 (Estrogen receptor) was > 30 µM, the AC50 [1] was > 30 µM and the AC50 (Histamine H1 receptor) was > 30 µM.
`C[C@H](CCC(=O)O)[C@H]1CC[C@H]2[C@@H]3[C@@H](O)C[C@@H]4C[C@H](O)CC[C@]4(C)[C@H]3CC[C@]12C` [URSODIOL] was tested, and the AC50 (Estrogen receptor) was > 30 µM and the AC50 [1] was > 30 µM.
In the case of `O=C(O)CO` [GLYCOLIC ACID], the AC50 (D(1A) dopamine receptor) is reported as > 30 µM.
With `CC(S)C(=O)NCC(=O)O` (stereo not drawn) [TIOPRONIN] the AC50 [1] was > 30 µM.
Compound `CCN(CC)CCNC(=O)c1c(C)[nH]c(/C=C2\C(=O)Nc3ccc(F)cc32)c1C` [SUNITINIB] has an AC50 (D(4) dopamine receptor) of 0.108 µM.
With `CC(C)Cc1ccc(C(C)C(=O)O)cc1` (stereo not drawn) [IBUPROFEN] the AC50 [2] was > 10 µM, the AC50 (Cannabinoid receptor 1) was > 10 µM and the AC50 (D(4) dopamine receptor) was > 10 µM. The AC50 [3] was > 10 µM, the AC50 [4] was > 30 µM and the AC50 [5] was > 10 µM.

Reference: ChEMBL document CHEMBL5291721, “A preclinical secondary pharmacology resource illuminates target-adverse drug reaction associations of marketed drugs” (Nat Commun, 2023)
